# Reference: patent EP0252422A2, “Pyridazinone derivatives and salts thereof” (MITSUBISHI KASEI CORPORATION, priority 1986, dated 1988)
# What was measured:
# [1] = test system: dog papillary muscle; assay: cross-circulated preparation of isolated dog papillary muscle; details: Canis lupus familiaris, read-out: Contractile force of dog papillary muscle Increasing rate (%); for activation at 0.03 mg: Dosage 30 µg i.a.; for activation at 0.1 mg: Dosage 100 µg i.a.
# Protocol: 1) Method of using cross-circulated preparation of isolated dog papillary muscle
# Cross-circulated preparations of isolated dog papillary muscle were prepared according to the method of Endoh & Hashimoto, American J. Physiol., vol. 218, p.1459-1463, 1970, United States. The compound dissolved in solvent was injected to the artery close to the preparation, and the action of the compound on the contractile force of papillary muscle was determined.
# [2] = test system: anesthetized dog; assay: anesthetized dog, cardiac contractility and cardiac output; assay type: in vivo; details: for Co Increasing rate (%): blood flow rate in the aorta as index of cardiac output; for Cont Increasing rate (%): contractile force of the right cardiac ventricle muscle
# Protocol: 3) Method of using anesthetized dog
# Male or female mongrel dogs weighing 8 - 15 kg were used. The dogs were anesthetized with sodium pentobarbital at the dose of 30 mg/kg (intravenous injection) and then applied with artificial respiration. They were thoracotomised at the intercostal portion between forth and fifith costa, and the fifth costa was excised. Then the pericardium was cut to expose the heart. A probe of an electromagnetic flow meter was attached to the aorta to measure the blood flow rate in the aorta, which was used as an approximate index of the cardiac output (CO). A polyethylene cannula was inserted into the left cardiac ventricle to measure the intraventricular pressure, thereby the variation rate of the intraventricular pressure of the left cardiac ventricle (dp/dt) was electrically determined. A strain gauge was attached to the wall of the right cardiac ventricle to measure the contractile force of the right cardiac ventricle muscle (Cont). The systemic blood pressure was measured at the left femoral artery. The heart rate was measured by means- of a cardiotachometer. The compound dissolved in solvent was applied intravenously from the left femoral vein.
# [3] = test system: guinea pig left atrium; assay: isolated guinea pig left atrium, isometric contraction in organ bath; details: Cavia porcellus, read-out: Contractile foece of guinea pig left atrium Increase rate (%); for activation at 30 µg/mL: Dosage 3x10^-5 g/ml; for activation at 10 µg/mL: Dosage 10^-5 g/ml
# Protocol: 2) Method of using isolated guinea pig left atrium
# Male guinea pigs weighing 200 - 300 g were killed by hitting their back of the heat and their left atria were immediately isolated. The left atrium was fixed to the bottom of an organ bath filled with 30 ml of Klebs-Henseleit's solution maintained at 35 °C. A mixed gas comprising 95 % of 02 and 5 % of C02 was passed through the Klebs-Henseleit's solution in the organ bath. The auricle of the left atrium was connected to a transducer with a thread to measure the isometric contraction. The atrium was applied with 0.5 g of resting tension. The atrium was electrically driven by square wave of 1 millisecond duration at a voltage of the order of 1.5 times of the threshold voltage and at a rate of twice per second by means of two platinum electrodes. The preparation was stabilized for 30 minutes, then the compound dissolved in solvent was added to the organ bath, and the reaction was determined.
Compound,activation at 0.03 mg [1] [%],activation at 0.1 mg [1] [%],dp/dtmax Increasing rate (%) ([2]; Dosage 30 µg/kg i.v.),Co Increasing rate (%) ([2]; Dosage 30 µg/kg i.v.),Cont Increasing rate (%) ([2]; Dosage 30 µg/kg i.v.),dp/dtmax Increasing rate (%) ([2]; Dosage 100 µg/kg i.v.),Co Increasing rate (%) ([2]; Dosage 100 µg/kg i.v.),Cont Increasing rate (%) ([2]; Dosage 100 µg/kg i.v.),activation at 30 µg/mL [3] [%],activation at 10 µg/mL [3] [%]
COc1ccc(CN2CCN(C(=O)COc3ccc(C4=NNC(=O)CC4)cc3)CC2)cc1 [Compound of Example 3],13.2,17,18.0,17.4,12.2,49.8,28.9,29.1,28,32
COc1cc(C2=NNC(=O)CC2)ccc1OCC(=O)N1CCN(Cc2ccc(OC)c(OC)c2OC)CC1 [Compound of Example 1],10,20.1,12.9,5.5,7.9,27.1,13.3,21.5,44.8,35.5
COc1ccc(CN2CCN(C(=O)COc3ccc(C4=NNC(=O)CC4)cc3)CC2)c(OC)c1OC [Compound of Example 2],11.4,12.5,12.2,4.8,10.1,34.3,16.3,22.8,22.6,6.4
COc1ccc(N2CCN(C(=O)C(C)Oc3ccc(C4=NNC(=O)CC4)cc3OC)CC2)cc1 (stereo not shown) [Compound of Example 4],7.5,24.8,9.9,8.7,3.6,19.2,19.6,10.0,35.9,23.8
